Assay results: ChEMBL document CHEMBL5291721, “A preclinical secondary pharmacology resource illuminates target-adverse drug reaction associations of marketed drugs” (Nat Commun, 2023)

Tests used:
[1] = target: T1, Alpha-1A adrenergic receptor (Homo sapiens, UniProt P35348); format: functional, cell-based
T1 sequence (P35348 whole entry): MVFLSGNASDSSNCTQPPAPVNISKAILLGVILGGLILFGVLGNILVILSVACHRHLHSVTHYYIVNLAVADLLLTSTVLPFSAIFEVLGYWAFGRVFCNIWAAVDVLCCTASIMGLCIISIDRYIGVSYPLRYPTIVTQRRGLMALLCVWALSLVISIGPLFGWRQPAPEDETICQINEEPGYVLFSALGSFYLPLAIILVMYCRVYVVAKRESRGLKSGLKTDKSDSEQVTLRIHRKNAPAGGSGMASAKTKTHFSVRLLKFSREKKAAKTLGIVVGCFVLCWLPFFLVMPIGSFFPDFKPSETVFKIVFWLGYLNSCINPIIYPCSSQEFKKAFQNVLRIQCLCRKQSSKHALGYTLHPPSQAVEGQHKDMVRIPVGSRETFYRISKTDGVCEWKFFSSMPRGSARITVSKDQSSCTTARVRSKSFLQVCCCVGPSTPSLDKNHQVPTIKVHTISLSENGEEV

[2] = target: T2, Alpha-2A adrenergic receptor (Homo sapiens, UniProt P08913)
T2 sequence (P08913 whole entry): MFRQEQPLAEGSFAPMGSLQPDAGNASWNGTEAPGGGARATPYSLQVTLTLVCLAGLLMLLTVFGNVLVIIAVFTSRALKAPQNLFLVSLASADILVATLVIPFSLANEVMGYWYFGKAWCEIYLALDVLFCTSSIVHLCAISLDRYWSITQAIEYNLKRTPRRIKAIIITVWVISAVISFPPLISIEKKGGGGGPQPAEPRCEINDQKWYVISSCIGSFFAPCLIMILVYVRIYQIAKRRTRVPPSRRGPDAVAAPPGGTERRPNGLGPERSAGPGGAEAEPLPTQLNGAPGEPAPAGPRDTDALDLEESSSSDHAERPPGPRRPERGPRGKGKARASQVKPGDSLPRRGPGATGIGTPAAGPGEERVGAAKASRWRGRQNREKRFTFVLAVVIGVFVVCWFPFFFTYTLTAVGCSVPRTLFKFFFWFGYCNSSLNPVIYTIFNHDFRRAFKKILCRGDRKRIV

[3] = target: T3, 5-hydroxytryptamine receptor 1A (Homo sapiens, UniProt P08908)
T3 sequence (P08908 whole entry): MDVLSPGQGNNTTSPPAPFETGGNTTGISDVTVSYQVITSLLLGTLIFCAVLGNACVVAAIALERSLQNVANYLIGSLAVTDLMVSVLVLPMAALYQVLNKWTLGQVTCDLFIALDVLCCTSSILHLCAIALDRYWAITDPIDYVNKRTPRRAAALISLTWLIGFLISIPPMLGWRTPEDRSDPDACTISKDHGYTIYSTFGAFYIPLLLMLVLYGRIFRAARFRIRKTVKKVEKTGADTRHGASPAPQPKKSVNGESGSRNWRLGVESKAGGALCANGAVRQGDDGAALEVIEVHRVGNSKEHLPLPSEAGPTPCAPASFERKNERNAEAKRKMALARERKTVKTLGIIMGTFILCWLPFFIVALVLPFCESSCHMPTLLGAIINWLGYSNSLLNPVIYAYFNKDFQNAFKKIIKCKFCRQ

[4] = target: 5-hydroxytryptamine receptor 2B (Homo sapiens, UniProt P41595); format: functional, cell-based
Chain of 5-hydroxytryptamine receptor 2B (P41595 whole entry): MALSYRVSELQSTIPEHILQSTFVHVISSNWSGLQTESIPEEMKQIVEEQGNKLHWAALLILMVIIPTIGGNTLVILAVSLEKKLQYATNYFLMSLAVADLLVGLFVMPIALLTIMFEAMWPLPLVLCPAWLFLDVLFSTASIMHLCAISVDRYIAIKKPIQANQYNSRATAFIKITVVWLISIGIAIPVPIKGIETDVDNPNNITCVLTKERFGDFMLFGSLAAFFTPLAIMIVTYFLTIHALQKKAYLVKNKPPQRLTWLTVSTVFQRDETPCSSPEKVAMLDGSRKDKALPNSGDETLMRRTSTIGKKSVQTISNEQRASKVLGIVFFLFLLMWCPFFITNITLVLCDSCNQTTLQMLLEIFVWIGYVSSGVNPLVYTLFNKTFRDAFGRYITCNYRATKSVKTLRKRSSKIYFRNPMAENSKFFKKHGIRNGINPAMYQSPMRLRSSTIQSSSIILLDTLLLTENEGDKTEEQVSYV

[5] = target: 3',5'-cyclic-AMP phosphodiesterase 4A (Homo sapiens, UniProt P27815); format: functional
Chain of 3',5'-cyclic-AMP phosphodiesterase 4A (P27815 whole entry): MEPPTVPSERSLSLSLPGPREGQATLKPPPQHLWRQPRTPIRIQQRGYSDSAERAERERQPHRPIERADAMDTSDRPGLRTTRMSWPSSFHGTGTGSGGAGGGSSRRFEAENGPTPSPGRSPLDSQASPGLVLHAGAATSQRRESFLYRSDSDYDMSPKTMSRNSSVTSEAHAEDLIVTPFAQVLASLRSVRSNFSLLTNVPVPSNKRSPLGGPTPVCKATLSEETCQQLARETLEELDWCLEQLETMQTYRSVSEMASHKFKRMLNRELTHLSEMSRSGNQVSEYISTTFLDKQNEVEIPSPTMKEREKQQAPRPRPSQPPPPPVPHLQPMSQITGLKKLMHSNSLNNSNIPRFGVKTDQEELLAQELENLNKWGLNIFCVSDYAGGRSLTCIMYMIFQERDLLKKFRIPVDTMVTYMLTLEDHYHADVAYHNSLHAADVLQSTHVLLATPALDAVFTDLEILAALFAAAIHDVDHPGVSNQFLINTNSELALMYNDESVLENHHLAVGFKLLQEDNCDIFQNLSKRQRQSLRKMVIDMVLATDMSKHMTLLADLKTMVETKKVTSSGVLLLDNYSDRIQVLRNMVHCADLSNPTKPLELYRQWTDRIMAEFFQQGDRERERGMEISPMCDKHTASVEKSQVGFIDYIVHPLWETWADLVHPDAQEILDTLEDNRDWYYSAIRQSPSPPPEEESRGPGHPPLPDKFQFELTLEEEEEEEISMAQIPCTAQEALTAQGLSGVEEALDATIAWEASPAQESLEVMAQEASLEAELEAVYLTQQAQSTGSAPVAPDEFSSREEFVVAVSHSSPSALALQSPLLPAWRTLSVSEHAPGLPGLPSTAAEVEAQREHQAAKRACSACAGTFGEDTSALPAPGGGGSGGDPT

Prothrombin = Prothrombin (Homo sapiens, UniProt P00734); format: functional
Thromboxane A2 receptor [6] = target: T4, Thromboxane A2 receptor (Homo sapiens, UniProt P21731); format: functional, cell-based
T4 sequence (P21731 whole entry): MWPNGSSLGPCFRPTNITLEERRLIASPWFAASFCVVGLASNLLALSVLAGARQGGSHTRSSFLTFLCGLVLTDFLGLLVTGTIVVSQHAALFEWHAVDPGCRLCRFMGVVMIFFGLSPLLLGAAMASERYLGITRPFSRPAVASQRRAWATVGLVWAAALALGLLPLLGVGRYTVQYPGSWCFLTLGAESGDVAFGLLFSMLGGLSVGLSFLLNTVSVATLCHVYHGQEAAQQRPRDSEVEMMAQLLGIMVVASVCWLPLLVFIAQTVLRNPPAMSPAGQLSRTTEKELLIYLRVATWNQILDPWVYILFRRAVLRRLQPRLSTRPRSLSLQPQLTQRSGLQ

Histamine H3 receptor = Histamine H3 receptor (Homo sapiens, UniProt Q9Y5N1)
Chain of Histamine H3 receptor (Q9Y5N1 whole entry): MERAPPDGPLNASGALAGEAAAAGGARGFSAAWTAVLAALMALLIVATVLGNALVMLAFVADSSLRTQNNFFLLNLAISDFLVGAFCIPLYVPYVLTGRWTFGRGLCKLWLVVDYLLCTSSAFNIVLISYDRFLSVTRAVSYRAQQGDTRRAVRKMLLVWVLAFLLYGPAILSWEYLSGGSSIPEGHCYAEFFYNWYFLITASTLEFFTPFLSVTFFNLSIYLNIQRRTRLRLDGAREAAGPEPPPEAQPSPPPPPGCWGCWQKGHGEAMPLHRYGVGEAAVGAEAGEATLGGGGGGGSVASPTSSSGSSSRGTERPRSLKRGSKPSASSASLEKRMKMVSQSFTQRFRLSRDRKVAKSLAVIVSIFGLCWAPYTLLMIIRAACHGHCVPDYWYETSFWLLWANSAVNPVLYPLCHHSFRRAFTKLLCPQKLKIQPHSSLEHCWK

[7] = target: Sodium-dependent dopamine transporter (Homo sapiens, UniProt Q01959)
Chain of Sodium-dependent dopamine transporter (Q01959 whole entry): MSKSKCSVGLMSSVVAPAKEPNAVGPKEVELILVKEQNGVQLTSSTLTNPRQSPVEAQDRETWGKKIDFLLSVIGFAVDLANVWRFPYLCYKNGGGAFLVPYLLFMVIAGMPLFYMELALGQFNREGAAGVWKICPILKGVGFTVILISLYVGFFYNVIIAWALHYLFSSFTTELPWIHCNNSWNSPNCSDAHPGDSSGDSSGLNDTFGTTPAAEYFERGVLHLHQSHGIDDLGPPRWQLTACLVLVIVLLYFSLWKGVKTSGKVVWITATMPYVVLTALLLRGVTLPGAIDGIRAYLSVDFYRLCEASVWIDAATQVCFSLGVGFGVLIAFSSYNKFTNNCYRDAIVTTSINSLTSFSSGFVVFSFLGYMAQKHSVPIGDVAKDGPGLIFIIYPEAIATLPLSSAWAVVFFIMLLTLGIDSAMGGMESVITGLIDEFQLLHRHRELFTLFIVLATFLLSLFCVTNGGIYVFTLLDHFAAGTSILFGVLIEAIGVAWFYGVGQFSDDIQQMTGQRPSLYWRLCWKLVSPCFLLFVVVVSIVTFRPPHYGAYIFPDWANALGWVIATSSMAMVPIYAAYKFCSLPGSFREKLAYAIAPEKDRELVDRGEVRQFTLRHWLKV

[8] = target: T1, Alpha-1A adrenergic receptor; format: functional, cell-based; remark: listed apart in the source
[9] = target: cGMP-inhibited 3',5'-cyclic phosphodiesterase 3A (Homo sapiens, UniProt Q14432); format: functional
Chain of cGMP-inhibited 3',5'-cyclic phosphodiesterase 3A (Q14432 whole entry): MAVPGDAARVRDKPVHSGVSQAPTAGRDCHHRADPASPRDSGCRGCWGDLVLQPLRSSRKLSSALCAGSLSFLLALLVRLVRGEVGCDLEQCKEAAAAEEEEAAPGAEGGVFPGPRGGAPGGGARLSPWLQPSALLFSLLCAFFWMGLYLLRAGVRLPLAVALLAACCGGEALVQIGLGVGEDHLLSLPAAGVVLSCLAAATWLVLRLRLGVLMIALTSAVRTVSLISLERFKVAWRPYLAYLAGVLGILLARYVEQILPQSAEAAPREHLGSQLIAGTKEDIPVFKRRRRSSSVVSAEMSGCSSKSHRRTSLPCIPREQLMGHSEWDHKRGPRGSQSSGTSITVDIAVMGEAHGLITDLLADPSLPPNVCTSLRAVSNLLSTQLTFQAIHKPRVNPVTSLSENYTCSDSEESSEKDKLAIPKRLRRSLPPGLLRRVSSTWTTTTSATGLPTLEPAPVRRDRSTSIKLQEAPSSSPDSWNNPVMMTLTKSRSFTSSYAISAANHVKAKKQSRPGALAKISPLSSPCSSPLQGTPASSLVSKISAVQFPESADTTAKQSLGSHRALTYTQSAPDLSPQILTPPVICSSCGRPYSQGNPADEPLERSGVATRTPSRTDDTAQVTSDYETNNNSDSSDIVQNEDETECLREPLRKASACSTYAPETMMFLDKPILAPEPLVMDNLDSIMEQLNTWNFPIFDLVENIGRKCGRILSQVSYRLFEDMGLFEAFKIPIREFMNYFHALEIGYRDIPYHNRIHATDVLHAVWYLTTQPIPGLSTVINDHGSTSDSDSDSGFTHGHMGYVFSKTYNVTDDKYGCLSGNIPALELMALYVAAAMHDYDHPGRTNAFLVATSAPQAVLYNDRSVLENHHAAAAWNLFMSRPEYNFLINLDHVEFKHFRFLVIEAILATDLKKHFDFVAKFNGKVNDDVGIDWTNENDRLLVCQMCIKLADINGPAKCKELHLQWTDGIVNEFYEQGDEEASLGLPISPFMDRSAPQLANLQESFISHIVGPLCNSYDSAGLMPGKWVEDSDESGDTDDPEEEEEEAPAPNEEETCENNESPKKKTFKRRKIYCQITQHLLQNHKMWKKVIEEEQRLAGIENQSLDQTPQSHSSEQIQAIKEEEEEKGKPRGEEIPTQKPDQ

[10] = target: Voltage-gated inwardly rectifying potassium channel KCNH2 (Homo sapiens, UniProt Q12809); format: functional
Chain of Voltage-gated inwardly rectifying potassium channel KCNH2 (Q12809 whole entry): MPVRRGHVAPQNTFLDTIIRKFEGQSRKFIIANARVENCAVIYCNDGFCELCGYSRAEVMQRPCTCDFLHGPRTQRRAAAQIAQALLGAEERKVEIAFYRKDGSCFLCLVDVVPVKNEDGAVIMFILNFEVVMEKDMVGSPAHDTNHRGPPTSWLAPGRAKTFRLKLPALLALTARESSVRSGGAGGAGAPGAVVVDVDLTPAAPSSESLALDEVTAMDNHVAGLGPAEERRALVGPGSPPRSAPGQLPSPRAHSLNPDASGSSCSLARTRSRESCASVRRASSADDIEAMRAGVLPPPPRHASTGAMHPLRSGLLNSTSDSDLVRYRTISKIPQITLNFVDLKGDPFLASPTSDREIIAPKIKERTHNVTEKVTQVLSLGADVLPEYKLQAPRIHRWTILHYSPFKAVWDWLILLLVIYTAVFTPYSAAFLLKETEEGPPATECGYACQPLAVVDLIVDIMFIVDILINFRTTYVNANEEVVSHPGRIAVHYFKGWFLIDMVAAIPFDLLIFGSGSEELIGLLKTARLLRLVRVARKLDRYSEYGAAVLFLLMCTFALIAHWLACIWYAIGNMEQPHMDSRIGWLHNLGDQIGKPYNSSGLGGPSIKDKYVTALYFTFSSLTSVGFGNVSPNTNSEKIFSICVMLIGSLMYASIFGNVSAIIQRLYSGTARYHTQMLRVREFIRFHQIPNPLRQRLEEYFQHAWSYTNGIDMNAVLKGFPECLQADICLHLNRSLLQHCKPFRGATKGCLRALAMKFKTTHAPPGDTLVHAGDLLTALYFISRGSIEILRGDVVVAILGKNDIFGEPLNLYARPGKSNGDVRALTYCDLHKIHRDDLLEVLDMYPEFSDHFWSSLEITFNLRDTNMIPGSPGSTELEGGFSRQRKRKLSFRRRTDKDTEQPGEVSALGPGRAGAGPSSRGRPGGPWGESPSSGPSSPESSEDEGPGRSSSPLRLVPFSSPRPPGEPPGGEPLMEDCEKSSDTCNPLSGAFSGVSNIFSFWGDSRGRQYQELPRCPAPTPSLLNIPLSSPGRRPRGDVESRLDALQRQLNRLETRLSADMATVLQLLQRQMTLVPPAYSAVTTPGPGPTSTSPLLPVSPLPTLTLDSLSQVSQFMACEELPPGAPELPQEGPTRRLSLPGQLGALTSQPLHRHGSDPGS

[11] = target: T5, Amine oxidase [flavin-containing] A (Homo sapiens, UniProt P21397); format: functional
T5 sequence (P21397 whole entry): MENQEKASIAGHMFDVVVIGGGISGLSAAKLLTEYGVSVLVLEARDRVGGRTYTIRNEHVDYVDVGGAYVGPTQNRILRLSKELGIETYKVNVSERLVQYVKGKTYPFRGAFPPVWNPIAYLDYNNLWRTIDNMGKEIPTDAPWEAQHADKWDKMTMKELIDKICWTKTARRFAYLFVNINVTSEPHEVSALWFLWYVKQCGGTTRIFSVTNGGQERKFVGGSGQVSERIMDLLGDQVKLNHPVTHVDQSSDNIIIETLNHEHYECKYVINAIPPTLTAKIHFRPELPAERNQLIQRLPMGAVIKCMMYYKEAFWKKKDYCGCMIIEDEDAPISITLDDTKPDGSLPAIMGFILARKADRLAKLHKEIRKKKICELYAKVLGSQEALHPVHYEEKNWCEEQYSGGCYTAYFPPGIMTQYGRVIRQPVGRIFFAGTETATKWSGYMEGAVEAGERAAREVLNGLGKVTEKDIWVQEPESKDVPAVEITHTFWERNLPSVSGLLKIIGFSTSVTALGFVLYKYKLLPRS

Thromboxane A2 receptor [12] = target: T4, Thromboxane A2 receptor; format: functional, cell-based; remark: listed apart in the source
Note: assay procedure not described here.

Molecule	AC50 [1] [nM]	AC50 [2] [nM]	AC50 [3] [µM]	AC50 [4] [µM]	AC50 [5] [µM]	AC50 (Prothrombin) [µM]	AC50 (Thromboxane A2 receptor [6]) [µM]	AC50 (Histamine H3 receptor) [µM]	AC50 [7] [µM]	AC50 [8] [µM]	AC50 [9] [µM]	AC50 ([10]; read-out: AC50) [nM]	AC50 [11] [µM]	AC50 (Thromboxane A2 receptor [12]) [nM]	AC50 ([10]; human, cellular components) [nM]
CN(C)c1ccc(C(=C2C=CC(=[N+](C)C)C=C2)c2ccc(N(C)C)cc2)cc1 [GENTIAN VIOLET]	845	1430	4.24	> 30	13.2	25.2	> 30	4.71	3.4	> 30	> 30	1000	> 30	2030	
Nc1ccc(S(N)(=O)=O)cc1 [SULFANILAMIDE]	> 30000	> 30000	> 30	> 30	> 30	> 30	> 30	> 30	> 30	> 30	> 30		> 30	> 30000	
HYDROXOCOBALAMIN															> 30000
